*1 amine or outer side, *2 acyl side, *3 side chain or, on linkers, in order; H or OH if unused. Where a SMILES comes first, the peptide text is derived from it. [ ]: non-standard residue; d: D form. The star is where a group is joined. NMeAbu(4-morpholino) = CN[C@@H](CCN1CCOCC1)C(=O)O; X1 = CN([C@@H](CCN1CCCCC1)C(=O)[*:2])[*:1]; NMeW = CN[C@@H](Cc1c[nH]c2ccccc12)C(=O)O; NMeY = CN[C@@H](Cc1ccc(O)cc1)C(=O)O; NMeCha = CN[C@@H](CC1CCCCC1)C(=O)O; NMeLys(Me) = CNCCCC[C@H](NC)C(=O)O; NMeF = CN[C@@H](Cc1ccccc1)C(=O)O; NMeI = CC[C@H](C)[C@H](NC)C(=O)O; NMeT = CN[C@H](C(=O)O)[C@@H](C)O; NMeD = CN[C@@H](CC(=O)O)C(=O)O; dNMeL = CN[C@H](CC(C)C)C(=O)O; NMeK = CN[C@@H](CCCCN)C(=O)O; NMeS = CN[C@@H](CO)C(=O)O; Morpholide = C1CN(*)CCO1; NMeA = CN[C@@H](C)C(=O)O; Piperidide = C1CCN(*)CC1
Key:
[1] = RRCK permeability; details: MDCK; for Papp A→B: dog
[2] = tested on: RRCK (Ralph Russ canine kidney cell line); experiment: RRCK permeability; details: MDCK
[3] = rat intestinal S-9 fraction and rat brush border membrane vesicles
[4] = rat; cited from earlier work
[5] = tested on: Caco-2; details: cited from earlier work

CNCCCC[C@H]1C(=O)N[C@@H](CC(C)C)C(=O)N2CCC[C@@H]2C(=O)N(C)[C@@H](Cc2ccc(O)cc2)C(=O)N[C@@H](CC(C)C)C(=O)N(C)[C@H](CC(C)C)C(=O)N1C [Compound 11] (cyclo(L[dNMeL][NMeLys(Me)]L[dP][NMeY]))
recovery [1]: 59.7% | Papp A→B [1]: 0.234 ×10⁻⁶ cm/s

CC(C)C[C@@H]1NC(=O)[C@H](Cc2ccc(O)cc2)N(C)C(=O)[C@H]2CCCN2C(=O)[C@H](CC(C)C)NC(=O)[C@H](CO)N(C)C(=O)[C@@H](CC(C)C)N(C)C1=O [Compound 2] (cyclo(L[dNMeL][NMeS]L[dP][NMeY]))
recovery [1]: 84.3% | log Papp(RRCK) [2]: −5.81 | stability towards oxidative or proteolytic degradation [3]: stable

CC(C)C[C@@H]1NC(=O)[C@H](Cc2ccc(O)cc2)N(C)C(=O)[C@H]2CCCN2C(=O)[C@H](CC(C)C)NC(=O)[C@H](CC(=O)O)N(C)C(=O)[C@@H](CC(C)C)N(C)C1=O [Compound 9] (cyclo(L[dNMeL][NMeD]L[dP][NMeY]))
recovery [1]: 74.8% | Papp A→B [1]: 0.457 ×10⁻⁶ cm/s

CC(C)C[C@@H]1NC(=O)[C@H](Cc2ccc(O)cc2)N(C)C(=O)[C@H]2CCCN2C(=O)[C@H](CC(C)C)NC(=O)[C@H](Cc2ccc(O)cc2)N(C)C(=O)[C@@H](CC(C)C)N(C)C1=O [Compound 6] (cyclo(L[dNMeL][NMeY]L[dP][NMeY]))
recovery [1]: 72.6% | log Papp(RRCK) [2]: −5.88

CC(C)C[C@@H]1NC(=O)[C@H](Cc2ccc(O)cc2)N(C)C(=O)[C@H]2CCCN2C(=O)[C@H](CC(C)C)NC(=O)[C@H](CC(=O)N2CCOCC2)N(C)C(=O)[C@@H](CC(C)C)N(C)C1=O [Compound 16] (cyclo(L[dNMeL][NMeD](Morpholide)L[dP][NMeY]))
recovery [1]: 47.9% | log Papp(RRCK) [2]: −6.20

CC[C@H](C)[C@H]1C(=O)N[C@@H](CC(C)C)C(=O)N2CCC[C@@H]2C(=O)N(C)[C@@H](Cc2ccc(O)cc2)C(=O)N[C@@H](CC(C)C)C(=O)N(C)[C@H](CC(C)C)C(=O)N1C [Compound 4] (cyclo(L[dNMeL][NMeI]L[dP][NMeY]))
recovery [1]: 39.7%

CC(C)C[C@@H]1NC(=O)[C@H](Cc2ccc(O)cc2)N(C)C(=O)[C@H]2CCCN2C(=O)[C@H](CC(C)C)NC(=O)[C@H](CC(=O)N2CCCCC2)N(C)C(=O)[C@@H](CC(C)C)N(C)C1=O [Compound 14] (cyclo(L[dNMeL][NMeD](Piperidide)L[dP][NMeY]))
recovery [1]: 45.6% | log Papp(RRCK) [2]: −5.84

CC(C)C[C@@H]1NC(=O)[C@H](Cc2ccc(O)cc2)N(C)C(=O)[C@H]2CCCN2C(=O)[C@H](CC(C)C)NC(=O)[C@H](Cc2c[nH]c3ccccc23)N(C)C(=O)[C@@H](CC(C)C)N(C)C1=O [Compound 8] (cyclo(L[dNMeL][NMeW]L[dP][NMeY]))
recovery [1]: 37.1% | log Papp(RRCK) [2]: −6.66

CC(C)C[C@@H]1NC(=O)[C@H](Cc2ccc(O)cc2)N(C)C(=O)[C@H]2CCCN2C(=O)[C@H](CC(C)C)NC(=O)[C@H]([C@@H](C)O)N(C)C(=O)[C@@H](CC(C)C)N(C)C1=O [Compound 3] (cyclo(L[dNMeL][NMeT]L[dP][NMeY]))
log Papp(RRCK) [2]: −5.33

CC(C)C[C@@H]1NC(=O)[C@H](Cc2ccc(O)cc2)N(C)C(=O)[C@H]2CCCN2C(=O)[C@H](CC(C)C)NC(=O)[C@H](CCN2CCCCC2)N(C)C(=O)[C@@H](CC(C)C)N(C)C1=O [Compound 13] (cyclo(L[dNMeL][X1]L[dP][NMeY]))
recovery [1]: 47.9% | log Papp(RRCK) [2]: −6.15

cyclo-[LPro-LPhe-DTrp(NMe)-LLys(NMe)-LThr-LPhe(NMe)] [Kessler peptide]
oral bioavailability [4]: 10% | Caco-2 permeability [5]: good

CC(C)C[C@@H]1NC(=O)[C@H](Cc2ccc(O)cc2)N(C)C(=O)[C@H]2CCCN2C(=O)[C@H](CC(C)C)NC(=O)[C@H](C)N(C)C(=O)[C@@H](CC(C)C)N(C)C1=O [Compound 5] (cyclo(L[dNMeL][NMeA]L[dP][NMeY]))
recovery [1]: 47.1% | log Papp(RRCK) [2]: −5.26

CC(C)C[C@@H]1NC(=O)[C@H](Cc2ccc(O)cc2)N(C)C(=O)[C@H]2CCCN2C(=O)[C@H](CC(C)C)NC(=O)[C@H](CC2CCCCC2)N(C)C(=O)[C@@H](CC(C)C)N(C)C1=O [Compound 12] (cyclo(L[dNMeL][NMeCha]L[dP][NMeY]))
recovery [1]: 12.2% | log Papp(RRCK) [2]: −6.74

CC(C)C[C@@H]1NC(=O)[C@H](Cc2ccc(O)cc2)N(C)C(=O)[C@H]2CCCN2C(=O)[C@H](CC(C)C)NC(=O)[C@H](CCCCN)N(C)C(=O)[C@@H](CC(C)C)N(C)C1=O [Compound 10] (cyclo(L[dNMeL][NMeK]L[dP][NMeY]))
recovery [1]: 56.5% | log Papp(RRCK) [2]: −6.56

CC(C)C[C@@H]1NC(=O)[C@H](Cc2ccc(O)cc2)N(C)C(=O)[C@H]2CCCN2C(=O)[C@H](CC(C)C)NC(=O)[C@H](CCN2CCOCC2)N(C)C(=O)[C@@H](CC(C)C)N(C)C1=O [Compound 15] (cyclo(L[dNMeL][NMeAbu(4-morpholino)]L[dP][NMeY]))
recovery [1]: 48.7% | log Papp(RRCK) [2]: −5.92

CC(C)C[C@@H]1NC(=O)[C@H](Cc2ccc(O)cc2)N(C)C(=O)[C@H]2CCCN2C(=O)[C@H](CC(C)C)NC(=O)[C@H](Cc2ccccc2)N(C)C(=O)[C@@H](CC(C)C)N(C)C1=O [Compound 7] (cyclo(L[dNMeL][NMeF]L[dP][NMeY]))
recovery [1]: 59.8% | log Papp(RRCK) [2]: −5.24

— paper PMC3488302 (MedChemComm, 2012)
